# Tested on: yeast genes (expressed mRNA)
# Test: DNA chip measurement of expressed mRNA of yeast genes after culture with a toxic chemical substance
# Assay type: cell-based, Saccharomyces cerevisiae S288C
# In short: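 Yeast S288C, YPD 25° C; toxicant at log phase, 2 h, sublethal growth-inhibiting conc.; no-chemical control. Hot SDS/acetate RNA extraction, oligo-dT mRNA, Cy3/Cy5-dUTP RT. Whole-genome chip, 65° C >12 h. Readout: treated/control intensity ratio, ≥2 significant.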
smiles,measurement,setting,value
"Oc1cc(Cl)c(Cl)cc1Cl [(6), 2,4,5-Trichlorophenol]",The level of expressed mRNA in the presence of chemical substance/The level of expressed mRNA in the absence of chemical substance,"yeast gene YAL053W, cultured two hours with substance",1.1
same,The level of expressed mRNA in the presence of chemical substance/The level of expressed mRNA in the absence of chemical substance,"yeast gene YAR028W, cultured two hours with substance",3.3
same,The level of expressed mRNA in the presence of chemical substance/The level of expressed mRNA in the absence of chemical substance,yeast gene YBL043W,26.9
same,The level of expressed mRNA in the presence of chemical substance/The level of expressed mRNA in the absence of chemical substance,"yeast gene YBL048W, cultured two hours with substance",2.0
same,The level of expressed mRNA in the presence of chemical substance/The level of expressed mRNA in the absence of chemical substance,"yeast gene YBL107C, cultured two hours with substance",1.1
same,The level of expressed mRNA in the presence of chemical substance/The level of expressed mRNA in the absence of chemical substance,yeast gene YBR026C,0.1
same,The level of expressed mRNA in the presence of chemical substance/The level of expressed mRNA in the absence of chemical substance,yeast gene YBR072W (stress protein genes),32.2
same,The level of expressed mRNA in the presence of chemical substance/The level of expressed mRNA in the absence of chemical substance,yeast gene YBR145W,11.5
same,The level of expressed mRNA in the presence of chemical substance/The level of expressed mRNA in the absence of chemical substance,yeast gene YBR145W (detoxification protein gene),11.5
same,The level of expressed mRNA in the presence of chemical substance/The level of expressed mRNA in the absence of chemical substance,"yeast gene YBR145W, cultured for two hours with substance",11.5
same,The level of expressed mRNA in the presence of chemical substance/The level of expressed mRNA in the absence of chemical substance,yeast gene YBR169C (stress protein genes),4.9
same,The level of expressed mRNA in the presence of chemical substance/The level of expressed mRNA in the absence of chemical substance,"yeast gene YDL072C, cultured two hours with substance",1.5
same,The level of expressed mRNA in the presence of chemical substance/The level of expressed mRNA in the absence of chemical substance,"yeast gene YDL204W, cultured two hours with substance",5.6
same,The level of expressed mRNA in the presence of chemical substance/The level of expressed mRNA in the absence of chemical substance,yeast gene YDL206W (transport facilitation protein genes),5.7
same,The level of expressed mRNA in the presence of chemical substance/The level of expressed mRNA in the absence of chemical substance,"yeast gene YDL222C, cultured two hours with substance",1.4
same,The level of expressed mRNA in the presence of chemical substance/The level of expressed mRNA in the absence of chemical substance,"yeast gene YDR031W, cultured two hours with substance",3.6
same,The level of expressed mRNA in the presence of chemical substance/The level of expressed mRNA in the absence of chemical substance,yeast gene YDR033W (stress protein genes),6.7
same,The level of expressed mRNA in the presence of chemical substance/The level of expressed mRNA in the absence of chemical substance,yeast gene YDR315C,9.4
same,The level of expressed mRNA in the presence of chemical substance/The level of expressed mRNA in the absence of chemical substance,"yeast gene YDR330W, cultured two hours with substance",2.3
same,The level of expressed mRNA in the presence of chemical substance/The level of expressed mRNA in the absence of chemical substance,"yeast gene YDR391C, cultured two hours with substance",2.8
same,The level of expressed mRNA in the presence of chemical substance/The level of expressed mRNA in the absence of chemical substance,yeast gene YDR406W (transport facilitation protein gene),5.9
same,The level of expressed mRNA in the presence of chemical substance/The level of expressed mRNA in the absence of chemical substance,"yeast gene YDR411C, cultured two hours with substance",0.8
same,The level of expressed mRNA in the presence of chemical substance/The level of expressed mRNA in the absence of chemical substance,"yeast gene YDR511W, cultured two hours with substance",2.0
same,The level of expressed mRNA in the presence of chemical substance/The level of expressed mRNA in the absence of chemical substance,"yeast gene YDR545W, cultured two hours with substance",1.0
same,The level of expressed mRNA in the presence of chemical substance/The level of expressed mRNA in the absence of chemical substance,"yeast gene YEL001C, cultured two hours with substance",1.3
same,The level of expressed mRNA in the presence of chemical substance/The level of expressed mRNA in the absence of chemical substance,"yeast gene YER004W, cultured two hours with substance",1.2
same,The level of expressed mRNA in the presence of chemical substance/The level of expressed mRNA in the absence of chemical substance,"yeast gene YER035W, cultured two hours with substance",0.9
same,The level of expressed mRNA in the presence of chemical substance/The level of expressed mRNA in the absence of chemical substance,"yeast gene YER079W, cultured two hours with substance",1.5
same,The level of expressed mRNA in the presence of chemical substance/The level of expressed mRNA in the absence of chemical substance,"yeast gene YER106W, cultured two hours with substance",1.1
same,The level of expressed mRNA in the presence of chemical substance/The level of expressed mRNA in the absence of chemical substance,"yeast gene YER158C, cultured two hours with substance",0.7
same,The level of expressed mRNA in the presence of chemical substance/The level of expressed mRNA in the absence of chemical substance,"yeast gene YER163C, cultured two hours with substance",2.0
same,The level of expressed mRNA in the presence of chemical substance/The level of expressed mRNA in the absence of chemical substance,"yeast gene YER175C, cultured two hours with substance",0.8
same,The level of expressed mRNA in the presence of chemical substance/The level of expressed mRNA in the absence of chemical substance,"yeast gene YFL006W, cultured two hours with substance",1.2
same,The level of expressed mRNA in the presence of chemical substance/The level of expressed mRNA in the absence of chemical substance,"yeast gene YFL010C, cultured two hours with substance",1.9
same,The level of expressed mRNA in the presence of chemical substance/The level of expressed mRNA in the absence of chemical substance,"yeast gene YFL014W, DNA repair protein genes, cultured two hours with substance",9.3
same,The level of expressed mRNA in the presence of chemical substance/The level of expressed mRNA in the absence of chemical substance,"yeast gene YFL024C, cultured two hours with substance",2.0
same,The level of expressed mRNA in the presence of chemical substance/The level of expressed mRNA in the absence of chemical substance,"yeast gene YFL032W, cultured two hours with substance",0.6
same,The level of expressed mRNA in the presence of chemical substance/The level of expressed mRNA in the absence of chemical substance,"yeast gene YGL037C, cultured two hours with substance",1.3
same,The level of expressed mRNA in the presence of chemical substance/The level of expressed mRNA in the absence of chemical substance,"yeast gene YGL047W, cultured two hours with substance",1.5
same,The level of expressed mRNA in the presence of chemical substance/The level of expressed mRNA in the absence of chemical substance,"yeast gene YGL053W, cultured two hours with substance",2.7
same,The level of expressed mRNA in the presence of chemical substance/The level of expressed mRNA in the absence of chemical substance,"yeast gene YGL117W, cultured two hours with substance",0.9
same,The level of expressed mRNA in the presence of chemical substance/The level of expressed mRNA in the absence of chemical substance,"yeast gene YGL121C, cultured two hours with substance",9.8
same,The level of expressed mRNA in the presence of chemical substance/The level of expressed mRNA in the absence of chemical substance,"yeast gene YGL199C, cultured two hours with substance",0.7
same,The level of expressed mRNA in the presence of chemical substance/The level of expressed mRNA in the absence of chemical substance,yeast gene YGR043C,16.3
same,The level of expressed mRNA in the presence of chemical substance/The level of expressed mRNA in the absence of chemical substance,"yeast gene YGR043C, cultured for two hours with substance",16.3
same,The level of expressed mRNA in the presence of chemical substance/The level of expressed mRNA in the absence of chemical substance,"yeast gene YGR101W, cultured two hours with substance",0.9
same,The level of expressed mRNA in the presence of chemical substance/The level of expressed mRNA in the absence of chemical substance,yeast gene YGR108W,0.1
same,The level of expressed mRNA in the presence of chemical substance/The level of expressed mRNA in the absence of chemical substance,"yeast gene YGR110W, cultured two hours with substance",0.9
same,The level of expressed mRNA in the presence of chemical substance/The level of expressed mRNA in the absence of chemical substance,"yeast gene YGR130C, cultured two hours with substance",0.9
same,The level of expressed mRNA in the presence of chemical substance/The level of expressed mRNA in the absence of chemical substance,"yeast gene YGR154C, cultured two hours with substance",1.4
same,The level of expressed mRNA in the presence of chemical substance/The level of expressed mRNA in the absence of chemical substance,"yeast gene YGR221C, cultured two hours with substance",3.0
same,The level of expressed mRNA in the presence of chemical substance/The level of expressed mRNA in the absence of chemical substance,yeast gene YHL040C (detoxification protein gene),7.3
same,The level of expressed mRNA in the presence of chemical substance/The level of expressed mRNA in the absence of chemical substance,yeast gene YHL040C (transport facilitation protein gene),7.3
same,The level of expressed mRNA in the presence of chemical substance/The level of expressed mRNA in the absence of chemical substance,"yeast gene YHR029C, cultured two hours with substance",2.7
same,The level of expressed mRNA in the presence of chemical substance/The level of expressed mRNA in the absence of chemical substance,"yeast gene YHR138C, cultured two hours with substance",3.8
same,The level of expressed mRNA in the presence of chemical substance/The level of expressed mRNA in the absence of chemical substance,"yeast gene YHR199C, cultured two hours with substance",1.1
same,The level of expressed mRNA in the presence of chemical substance/The level of expressed mRNA in the absence of chemical substance,"yeast gene YIL023C, cultured two hours with substance",0.9
same,The level of expressed mRNA in the presence of chemical substance/The level of expressed mRNA in the absence of chemical substance,"yeast gene YIL024C, cultured two hours with substance",1.0
same,The level of expressed mRNA in the presence of chemical substance/The level of expressed mRNA in the absence of chemical substance,"yeast gene YIL041W, cultured two hours with substance",1.0
same,The level of expressed mRNA in the presence of chemical substance/The level of expressed mRNA in the absence of chemical substance,"yeast gene YIL087C, cultured two hours with substance",4.1
same,The level of expressed mRNA in the presence of chemical substance/The level of expressed mRNA in the absence of chemical substance,"yeast gene YIL117C, cultured two hours with substance",1.2
same,The level of expressed mRNA in the presence of chemical substance/The level of expressed mRNA in the absence of chemical substance,"yeast gene YJL057C, cultured two hours with substance",1.4
same,The level of expressed mRNA in the presence of chemical substance/The level of expressed mRNA in the absence of chemical substance,"yeast gene YJL066C, cultured two hours with substance",1.4
same,The level of expressed mRNA in the presence of chemical substance/The level of expressed mRNA in the absence of chemical substance,"yeast gene YJL082W, cultured two hours with substance",0.2
same,The level of expressed mRNA in the presence of chemical substance/The level of expressed mRNA in the absence of chemical substance,"yeast gene YJL108C, cultured two hours with substance",0.6
same,The level of expressed mRNA in the presence of chemical substance/The level of expressed mRNA in the absence of chemical substance,"yeast gene YJL149W, cultured two hours with substance",0.7
same,The level of expressed mRNA in the presence of chemical substance/The level of expressed mRNA in the absence of chemical substance,"yeast gene YJL151C, cultured two hours with substance",2.2
same,The level of expressed mRNA in the presence of chemical substance/The level of expressed mRNA in the absence of chemical substance,"yeast gene YJL152W, cultured two hours with substance",1.5
same,The level of expressed mRNA in the presence of chemical substance/The level of expressed mRNA in the absence of chemical substance,"yeast gene YJL161W, cultured two hours with substance",8.0
same,The level of expressed mRNA in the presence of chemical substance/The level of expressed mRNA in the absence of chemical substance,"yeast gene YJL171C, cultured two hours with substance",2.7
same,The level of expressed mRNA in the presence of chemical substance/The level of expressed mRNA in the absence of chemical substance,"yeast gene YJL186W, cultured two hours with substance",0.7
same,The level of expressed mRNA in the presence of chemical substance/The level of expressed mRNA in the absence of chemical substance,"yeast gene YJR008W, cultured two hours with substance",2.2
